Measurements reported in patent US6664251B2, “Benzothiazine derivative” (Daiichi Suntory Pharma Co., Ltd., priority 1993, dated 2003).

What was measured:
serotonin-2 receptor = assay: Anti-serotonin action (anti-5-HT action): contraction of isolated superior mesenteric artery induced by serotonin; details: contraction induced by 10^−5 M serotonin (5-HT) taken as 100%, Hartley male guinea pig superior mesenteric artery; for Anti 5-HT action (% of Control) 10^−7 M: test drug 10^−7 M; for Anti 5-HT action (% of Control) 10^−6 M: test drug 10^−6 M
Description: (1) Anti-Serotonin Action (Anti-5-HT Action)
A preparation cut in a helical form was suspended under 0.3 g load in a Magnus cylinder filled with the Tyrode solution which had been aerated with a gas mixture of 95% O2+5% CO2 and maintained at 37° C. Using an isometric transducer (“UL-10”, manufactured by SHINKOH K.K.) and a pressure preamplifier (“DSA-605A”, manufactured by SHINKOH K.K.), variations in tension were measured. The isometric tensions were recorded on a pen-writing recorder (“VP-6537A”, manufactured by NATIONAL K.K.). Taking the contraction induced by 10^−5 M serotonin (5-HT) as 100%, the percent contractions in the presence of each test drug at 10^−7 and 10^−6 M were determined as anti-5-HT action.

α1 receptor = assay: Anti-α1 action: tonic contraction of isolated thoracic aorta induced by norepinephrine; details: tonic contraction induced by 10^−5 M norepinephrine (NE) taken as 100%, Hartley male guinea pig thoracic aorta; for Anti α1 action (% of Control) 10^−7 M: test drug 10^−7 M; for Anti α1 action (% of Control) 10^−8 M: test drug 10^−8 M
Description: The thoracic aorta of each Hartley male guinea pig (body weight: 300-500 g) was excised. A preparation cut in a helical form was suspended under 1 g load in a Magnus cylinder filled with the Tyrode solution which had been aerated with a gas mixture of 95% O2+5% CO2 and maintained at 37° C. Using an isometric transducer (“TB-612J”, manufactured by NIHON KOHDEN) and a pressure preamplifier (“AP-620G”, manufactured by NIHON KOHDEN), variations in tension were measured. The isometric tensions were recorded on a thermal pen-writing recorder (“WT-647G”, manufactured by NIHON KOHDEN).
Taking the tonic contraction induced by 10^−5 M norepinephrine (NE) as 100%, the percent contractions upon addition of each test drug at 10^−8 and 10^−7 M were determined as anti-α1 action.

SMILES	Anti 5-HT action (% of Control) 10^−7 M (serotonin-2 receptor)	Anti α1 action (% of Control) 10^−7 M (α1 receptor)	Anti α1 action (% of Control) 10^−8 M (α1 receptor)	Anti 5-HT action (% of Control) 10^−6 M (serotonin-2 receptor)
O=S1(=O)c2cccc(Cl)c2C2(CN1CCCN1CCN(c3ccc(O)cc3)CC1)OCCO2 [Compound No. 114, 5-chloro-2-[3-[4-(4-hydroxyphenyl)piperazin-1-yl]propyl]-3,4-dihydro-2H-1,2-benzothiazin-4-one 1,1-dioxide ethylene acetal]	23.5 % of Control	98.9 % of Control	101.1 % of Control	–
COc1ccc2c(c1)S(=O)(=O)N(CCCN1CCC(C(=O)c3ccc(F)cc3)CC1)CC21OCCO1 [Compound No. 120, 2-[3-[4-(4-fluorobenzoyl)piperidino]propyl]-7-methoxy-3,4-dihydro-2H-1,2-benzothiazin-4-one 1,1-dioxide ethylene acetal]	51.6 % of Control	71.6 % of Control	93.2 % of Control	20.3 % of Control
COc1cccc2c1C1(CN(CCCN3CCN(c4ccc(O)cc4)CC3)S2(=O)=O)OCCO1 [Compound No. 111, 2-[3-[4-(4-hydroxyphenyl)piperazin-1-yl]propyl]-5-methoxy-3,4-dihydro-2H-1,2-benzothiazin-4-one 1,1-dioxide ethylene acetal]	10.9 % of Control	98.6 % of Control	100.9 % of Control	–
COc1cccc2c1C1(CN(CCN3CCN(c4ccc(F)cc4)CC3)S2(=O)=O)OCCO1 [Compound No. 109, 2-[2-[4-(4-fluorophenyl)piperazin-1-yl]ethyl]-5-methoxy-3,4-dihydro-2H-1,2-benzothiazin-4-one 1,1-dioxide ethylene acetal]	10.5 % of Control	96.1 % of Control	99.3 % of Control	–
O=S1(=O)c2ccc(Cl)cc2C2(CN1CCCN1CCN(c3ccc(F)cc3)CC1)OCCO2 [Compound No. 117, 6-chloro-2-[3-[4-(4-fluorophenyl)piperazin-1-yl]propyl]-3,4-dihydro-2H-1,2-benzothiazin-4-one 1,1-dioxide ethylene acetal]	48.0 % of Control	80.2 % of Control	97.1 % of Control	23.6 % of Control
COc1ccc2c(c1)C1(CN(CCCN3CCN(c4ccc(F)cc4)CC3)S2(=O)=O)OCCO1 [Compound No. 115, 2-[3-[4-(4-fluorophenyl)piperazin-1-yl]propyl]-6-methoxy-3,4-dihydro-2H-1,2-benzothiazin-4-one 1,1-dioxide ethylene acetal]	63.0 % of Control	62.3 % of Control	100.4 % of Control	14.1 % of Control
O=S1(=O)c2cccc(Cl)c2C2(CN1CCCN1CCN(c3ccc(F)cc3)CC1)OCCO2 [Compound No. 113, 5-chloro-2-[3-[4-(4-fluorophenyl)piperazin-1-yl]propyl]-3,4-dihydro-2H-1,2-benzothiazin-4-one 1,1-dioxide ethylene acetal]	49.5 % of Control	89.3 % of Control	98.3 % of Control	–
O=S1(=O)c2ccccc2C2(CN1CCCN1CCN(c3ccc(F)cc3)CC1)OCCCO2 [Compound No. 64, 2-[3-[4-(4-fluorophenyl)piperazin-1-yl]propyl]-3,4-dihydro-2H-1,2-benzothiazine-4-spiro-2′-(1′,3′-dioxane) 1,1-dioxide]	24.8 % of Control	84.9 % of Control	97.3 % of Control	13.8 % of Control
